The text below walks through data of patent publication CN111729074A, “多肽rl25在制备抗肿瘤药物中的应用” (Zhuhai Campus Of Zunyi Medical University, priority 2020, dated 2020).

Series [1] relates to 3 tumour cells HCT-8, SKVO3, MCF-7 (3种肿瘤细胞). Put plainly: MTT assay of cell proliferation, tumour cells (24 h). The settings on record: for inhibitory effect on the 3 tumour cells: HCT-8, SKVO3, MCF-7, 24 h, in words (IC50 table is a picture); for killing effect on / toxicity to various tumour cells: summary statement. The series is classed as cell-based.
The subject of series [2] is HK2 cells (人肾小管上皮细胞). The experiment in a line: MTT assay of cell proliferation, normal cells HK2 (24 h). The class given is cell-based, human. The settings on record: for toxicity / side effect on HK2: in words; for toxicity to normal cells: summary statement.
The test system of series [3] is tumour (肿瘤). The settings on record: background statement on LL37; cited from earlier work.
For series [4], the system named is normal cells (正常细胞). The conditions noted are these: background statement on LL37; cited from earlier work.
The subject of series [5] is HCT-8 cells. Put plainly: HCT-8 mitochondrial membrane potential, JC-1 flow cytometry (24 h). The conditions noted are these: HCT-8, 24 h; for mitochondrial membrane potential: with rising concentration (0-4 μM), versus control, P<0.01. The series is classed as cell-based, human. Background: Flow cytometry measures light scatter and fluorescence of single cells or particles in a stream.

In series [6] the test system is HCT-8 cells. Put plainly: HCT-8 apoptosis, Annexin V-FITC/PI flow cytometry (24 h). The series is classed as cell-based, human. The conditions noted are these: for concentration dependence of apoptosis / average apoptosis rate / early apoptosis: HCT-8, 24 h; for early apoptosis: versus control.
Series [7] can be described thus: Earlier antibacterial test. The settings on record: initial tests.
The test system of series [8] is HCT-8 cells. The experiment in a line: ROS in HCT-8 cells, DCFH-DA flow cytometry (24 h). The conditions noted are these: HCT-8, 24 h; for ROS content compared with control: P>0.05. The series is classed as cell-based, human.
The test system of series [9] is HCT-8 cells. The experiment in a line: MTT assay of cell proliferation, HCT-8 (therapeutic index). The class given is cell-based, human. The settings on record: in words. (In general: Tetrazolium dyes change colour on reduction, which living cells bring about.)

Consider “LL37: LL37是hCAP-18蛋白中含有37个氨基酸的C端 [reference compound]”, for which the “inhibitory effect on the 3 tumour cells” value in series [1] is reported as “抑制效果均表现较好”. For the same substance, the “toxicity / side effect on HK2” value in series [2] (HK2, 24 h) is “毒副作用也很明显”. For the same substance, the antitumour effect result in [3] was “良好的抗肿瘤效应”. In series [4], the “toxicity to normal cells” value is “对正常细胞的毒性较大”.
For the substance RL25: 氨基酸序列为:RLNRLFRKIRQVIRKFEKGIKEKSK, the mitochondrial membrane potential entry in series [5] was “逐渐降低”. Besides, in [6], the “concentration dependence of apoptosis” value is given as “明显的浓度依赖性” and the early apoptosis entry is “早期凋亡细胞的数目逐渐增加”. Moreover, the average apoptosis rate in series [6] (1 μM) was 29.56%. Moreover, the average apoptosis rate in series [6] (2 μM) is listed as 37.44%. The same substance displayed an average apoptosis rate in series [6] (4 μM) of 55.15%. The “killing effect compared with SE37” value in [6] (HCT-8, 4 μM RL25 versus 6 μM SE37) is recorded as “强于浓度为6μM的SE37”. For the same substance, in [7], the antibacterial performance entry was “较好的抑菌性能”. Further, the “ROS content, trend” value in series [8] (0-4 μM) is given as “先升高后降低”. Besides, the “ROS content compared with control” value in series [8] (4 μM) was “无明显差异”. For the same substance, in [8] (peak at 1 μM, versus control P<0.01), the “ROS, mean fluorescence intensity (peak)” value stood at 4670±91.804. Also, in series [1] (3 tumour cells, in words), the “therapeutic index, IC50(HK2)/IC50(tumour cells)” value was “较高”. Besides, in [1] (3 tumour cells, versus SE37), the “therapeutic index compared with SE37” value is listed as “均高于SE37的治疗指数”. Also, in [1] (3 tumour cells, versus positive drug LL37), the “inhibitory effect on tumour cells compared with LL37” value is “相近或更好”. Besides, in series [1], the “inhibitory effect on the 3 tumour cells” value is “很好的抑制效果” and the “killing effect on / toxicity to various tumour cells” value was “良好的杀伤效果”. The “toxicity / side effect on HK2” value in series [2] (HK2, 24 h) is listed as “对正常细胞的毒性小”. In addition, the “toxicity to normal cells compared with LL37” value in [2] (HK2, 24 h, versus positive drug LL37) is given as “毒性明显更小”. The “toxicity to normal cells” value in [2] was “毒性轻微”. The “therapeutic index, IC50(HK2)/IC50(HCT-8)” value in series [9] is “较高”.
For the substance “SE37: 抗菌肽SE37(其氨基酸序列为:SETRPVLNRLFDKIRQVIRKFEKGIKEKSKRFFDGLL) [reference compound]”, in [5] (0-4 μM), the FL1 channel fluorescence result is listed as “荧光增多” and the FL2 channel fluorescence entry is “荧光减少”. For the same substance, the “FL1 channel fluorescence signal” value in series [5] (4 μM versus 2 μM) is “并未明显增加”. In addition, in series [5], the mitochondrial membrane potential entry is “明显降低”. Also, in series [6], the “concentration dependence of apoptosis” value is on record as “一定的浓度依赖性” and the early apoptosis entry is on record as “出现明显的早期细胞凋亡”. The average apoptosis rate in series [6] (3 μM) is given as 27.39%. For the same substance, the average apoptosis rate in [6] (6 μM) was 36.28%. Further, the “ROS content, trend” value in [8] (0-8 μM) was “先升高后降低”. For the same substance, in [8] (8 μM), the “ROS content compared with control” value is “已无明显变化”. In addition, the “ROS, mean fluorescence intensity (peak)” value in [8] (peak at 2 μM) was 3127.753±96.501. Besides, in series [1], the “inhibitory effect on the 3 tumour cells” value is reported as “抑制效果均表现较好” and the “killing effect on / toxicity to various tumour cells” value is recorded as “毒性均较大”. Further, the “toxicity / side effect on HK2” value in series [2] (HK2, 24 h) is recorded as “毒副作用也很明显”. Besides, the “toxicity to normal cells” value in series [2] was “毒性均较大”.
